Assay results as given in US20240393292A1, “ALLERGY ANTIGEN AND EPITOPE THEREOF” (HOYU CO., LTD., priority 2019, published 2024).
Values belong to the substance of their own block, whether it stands above or below them.

Test system: IgE antibodies from patients
Assay: Wheat epitope mapping (2): overlapping 10-amino-acid peptide fragments shifted by one amino acid;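 also: key = sequence deemed particularly important within the common 15-residue sequence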
Assay type: binding, human
Conditions: sequence without X
Method in brief: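 Residual binding was banded as <30% none, 30–<50% poor, 50–<70% somewhat poor and ≥70% retained, relative to the parent overlapping sequence set to 100%. Values were chemiluminescent IgE signals from patient sera after subtracting secondary-antibody-only controls. The peptides were spot-synthesised 10-mers shifted by one amino acid.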

[1] = serum of patient P50 (child, general immediate type allergy to wheat)
[2] = serum of patient G7 (adult, general immediate type allergy to wheat)
[3] = serum of patient P52 (child, general immediate type allergy to wheat)

Rank of partial sequence as epitope binding to IgE antibody (serum of patient P34 (WDEIA)): More preferably
Substance: 1550 (LVQQQQFLGQ; REGION 1..10: note = epitope) [compound 1550]

Rank of partial sequence as epitope binding to IgE antibody (serum of patient P35 (WDEIA)): Preferably
Substance: 1555 (QVPLVQQQ; REGION 1..8: note = epitope) [compound 1555]

Rank of partial sequence as epitope binding to IgE antibody [1]: More preferably
Substance: 1557 (QVPLVQQQQF; REGION 1..10: note = epitope) [compound 1557]

Rank of partial sequence as epitope binding to IgE antibody [1]: Key
Substance: 1560 (QQQFLGQQ; REGION 1..8: note = epitope) [compound 1560]

Rank of partial sequence as epitope binding to IgE antibody (serum of patient P3 (WDEIA)): Key
Substance: 1568 (PFPQTQ; REGION 1..6: note = epitope) [compound 1568]

Rank of partial sequence as epitope binding to IgE antibody (serum of patient P16 (WDEIA)): Preferably
Substance: 1573 (PQQPQQPFP; REGION 1..9: note = epitope) [compound 1573]

Rank of partial sequence as epitope binding to IgE antibody (serum of patient P16 (WDEIA)): Preferably
Substance: 1575 (QQPQQ; REGION 1..5: note = epitope) [compound 1575]

Rank of partial sequence as epitope binding to IgE antibody (serum of patient P20 (WDEIA)): More preferably
Substance: 1581 (PFPQTQQPQ; REGION 1..9: note = epitope) [compound 1581]

Rank of partial sequence as epitope binding to IgE antibody (serum of patient P21 (WDEIA)): More preferably
Substance: 1586 (QQPFPQTQQP; REGION 1..10: note = epitope) [compound 1586]

Rank of partial sequence as epitope binding to IgE antibody [1]: Key
Substance: 1591 (QPFPQTQQP; REGION 1..9: note = epitope) [compound 1591]

Rank of partial sequence as epitope binding to IgE antibody (serum of patient P15 (WDEIA)): Key
Substance: 1613 (YNPD; REGION 1..4: note = epitope) [compound 1613]

Rank of partial sequence as epitope binding to IgE antibody (serum of patient P16 (WDEIA)): Key
Substance: 1614 (YNPD; REGION 1..4: note = epitope) [compound 1614]

Rank of partial sequence as epitope binding to IgE antibody (serum of patient P20 (WDEIA)): Key
Substance: 1618 (FVPISG; REGION 1..6: note = epitope) [compound 1618]

Rank of partial sequence as epitope binding to IgE antibody (serum of patient P24 (WDEIA)): Preferably
Substance: 1620 (YNPDKV; REGION 1..6: note = epitope) [compound 1620]

Rank of partial sequence as epitope binding to IgE antibody (serum of patient P25 (WDEIA)): Key
Substance: 1623 (YNPD; REGION 1..4: note = epitope) [compound 1623]

Rank of partial sequence as epitope binding to IgE antibody (serum of patient P26 (WDEIA)): Key
Substance: 1626 (YNPD; REGION 1..4: note = epitope) [compound 1626]

Rank of partial sequence as epitope binding to IgE antibody (serum of patient P27 (WDEIA)): Key
Substance: 1629 (YNPD; REGION 1..4: note = epitope) [compound 1629]

Rank of partial sequence as epitope binding to IgE antibody (serum of patient P27 (WDEIA)): Key
Substance: 1630 (PDKVPFVPIS; REGION 1..10: note = epitope) [compound 1630]

Rank of partial sequence as epitope binding to IgE antibody (serum of patient P29 (WDEIA)): Key
Substance: 1632 (YNPD; REGION 1..4: note = epitope) [compound 1632]

Rank of partial sequence as epitope binding to IgE antibody (serum of patient P34 (WDEIA)): Key
Substance: 1639 (YNPDKV; REGION 1..6: note = epitope) [compound 1639]

Rank of partial sequence as epitope binding to IgE antibody (serum of patient P35 (WDEIA)): Key
Substance: 1642 (YNPD; REGION 1..4: note = epitope) [compound 1642]

Rank of partial sequence as epitope binding to IgE antibody (serum of patient P36 (WDEIA)): Preferably
Substance: 1646 (YNPDKVPF; REGION 1..8: note = epitope) [compound 1646]

Rank of partial sequence as epitope binding to IgE antibody [1]: Preferably
Substance: 1650 (YNPDKVPF; REGION 1..8: note = epitope) [compound 1650]

Second part, the substance before the results:

Substance: 1540 (VQQQQFLG; REGION 1..8: note = epitope) [compound 1540]
Rank of partial sequence as epitope binding to IgE antibody (serum of patient P17 (WDEIA)): Preferably

Substance: 1542 (QVPLVQQQQ; REGION 1..9: note = epitope) [compound 1542]
Rank of partial sequence as epitope binding to IgE antibody (serum of patient P21 (WDEIA)): More preferably

Substance: 1543 (QVPLVQQ; REGION 1..7: note = epitope) [compound 1543]
Rank of partial sequence as epitope binding to IgE antibody (serum of patient P21 (WDEIA)): Preferably

Substance: 1547 (QVPLVQQQQ; REGION 1..9: note = epitope) [compound 1547]
Rank of partial sequence as epitope binding to IgE antibody (serum of patient P34 (WDEIA)): More preferably

Substance: 1548 (QVPLVQQQ; REGION 1..8: note = epitope) [compound 1548]
Rank of partial sequence as epitope binding to IgE antibody (serum of patient P34 (WDEIA)): Preferably

Substance: 1551 (QQQQFLGQ; REGION 1..8: note = epitope) [compound 1551]
Rank of partial sequence as epitope binding to IgE antibody (serum of patient P34 (WDEIA)): Preferably

Substance: 1556 (LVQQQ; REGION 1..5: note = epitope) [compound 1556]
Rank of partial sequence as epitope binding to IgE antibody (serum of patient P35 (WDEIA)): Key

Substance: 1558 (PLVQQQQF; REGION 1..8: note = epitope) [compound 1558]
Rank of partial sequence as epitope binding to IgE antibody [1]: Preferably

Substance: 1562 (QVPLVQQQQF; REGION 1..10: note = epitope) [compound 1562]
Rank of partial sequence as epitope binding to IgE antibody [2]: More preferably

Substance: 1563 (QVPLVQQQQ; REGION 1..9: note = epitope) [compound 1563]
Rank of partial sequence as epitope binding to IgE antibody [2]: Preferably

Substance: 1565 (QQQQFLGQ; REGION 1..8: note = epitope) [compound 1565]
Rank of partial sequence as epitope binding to IgE antibody [2]: Key

Substance: 1567 (PFPQTQQ; REGION 1..7: note = epitope) [compound 1567]
Rank of partial sequence as epitope binding to IgE antibody (serum of patient P3 (WDEIA)): Preferably

Substance: 1577 (PFPQTQQ; REGION 1..7: note = epitope) [compound 1577]
Rank of partial sequence as epitope binding to IgE antibody (serum of patient P16 (WDEIA)): More preferably

Substance: 1580 (QPFPQTQQPQ; REGION 1..10: note = epitope) [compound 1580]
Rank of partial sequence as epitope binding to IgE antibody (serum of patient P20 (WDEIA)): Further preferably

Substance: 1582 (FPQTQQPQ; REGION 1..8: note = epitope) [compound 1582]
Rank of partial sequence as epitope binding to IgE antibody (serum of patient P20 (WDEIA)): Preferably

Substance: 1590 (QPFPQTQQPQ; REGION 1..10: note = epitope) [compound 1590]
Rank of partial sequence as epitope binding to IgE antibody [1]: Preferably

Substance: 1594 (QPQQPFP; REGION 1..7: note = epitope) [compound 1594]
Rank of partial sequence as epitope binding to IgE antibody [3]: Further preferably

Substance: 1595 (QPQQPF; REGION 1..6: note = epitope) [compound 1595]
Rank of partial sequence as epitope binding to IgE antibody [3]: More preferably

Substance: 1601 (AQLEAIRSL; REGION 1..9: note = epitope) [compound 1601]
Rank of partial sequence as epitope binding to IgE antibody (serum of patient P3 (WDEIA)): Preferably

Substance: 1605 (AQLEAIRS; REGION 1..8: note = epitope) [compound 1605]
Rank of partial sequence as epitope binding to IgE antibody (serum of patient P10 (WDEIA)): More preferably

Substance: 1611 (YNPD; REGION 1..4: note = epitope) [compound 1611]
Rank of partial sequence as epitope binding to IgE antibody (serum of patient P8 (WDEIA)): Key

Substance: 1615 (YNPD; REGION 1..4: note = epitope) [compound 1615]
Rank of partial sequence as epitope binding to IgE antibody (serum of patient P17 (WDEIA)): Key

Substance: 1616 (FVPISG; REGION 1..6: note = epitope) [compound 1616]
Rank of partial sequence as epitope binding to IgE antibody (serum of patient P17 (WDEIA)): Key

Substance: 1617 (VPFVPISG; REGION 1..8: note = epitope) [compound 1617]
Rank of partial sequence as epitope binding to IgE antibody (serum of patient P20 (WDEIA)): Preferably

Substance: 1619 (FVPISG; REGION 1..6: note = epitope) [compound 1619]
Rank of partial sequence as epitope binding to IgE antibody (serum of patient P21 (WDEIA)): Key

Substance: 1621 (YNPD; REGION 1..4: note = epitope) [compound 1621]
Rank of partial sequence as epitope binding to IgE antibody (serum of patient P24 (WDEIA)): Key

Substance: 1624 (FVPISG; REGION 1..6: note = epitope) [compound 1624]
Rank of partial sequence as epitope binding to IgE antibody (serum of patient P25 (WDEIA)): Key

Substance: 1628 (YNPDKVP; REGION 1..7: note = epitope) [compound 1628]
Rank of partial sequence as epitope binding to IgE antibody (serum of patient P27 (WDEIA)): Preferably

Substance: 1631 (DKVPFVPISG; REGION 1..10: note = epitope) [compound 1631]
Rank of partial sequence as epitope binding to IgE antibody (serum of patient P28 (WDEIA)): Key

Substance: 1633 (YNPD; REGION 1..4: note = epitope) [compound 1633]
Rank of partial sequence as epitope binding to IgE antibody (serum of patient P31 (WDEIA)): Key

Substance: 1634 (YNPDKVPF; REGION 1..8: note = epitope) [compound 1634]
Rank of partial sequence as epitope binding to IgE antibody (serum of patient P32 (WDEIA)): Preferably

Substance: 1635 (YNPD; REGION 1..4: note = epitope) [compound 1635]
Rank of partial sequence as epitope binding to IgE antibody (serum of patient P32 (WDEIA)): Key

Substance: 1637 (YNPDKVPF; REGION 1..8: note = epitope) [compound 1637]
Rank of partial sequence as epitope binding to IgE antibody (serum of patient P33 (WDEIA)): Key

Substance: 1640 (DKVPFVPISG; REGION 1..10: note = epitope) [compound 1640]
Rank of partial sequence as epitope binding to IgE antibody (serum of patient P34 (WDEIA)): Key

Substance: 1641 (YNPDKVP; REGION 1..7: note = epitope) [compound 1641]
Rank of partial sequence as epitope binding to IgE antibody (serum of patient P35 (WDEIA)): Preferably

Substance: 1643 (PDKVPFVPIS; REGION 1..10: note = epitope) [compound 1643]
Rank of partial sequence as epitope binding to IgE antibody (serum of patient P35 (WDEIA)): Key

Substance: 1645 (YNPDKVPFV; REGION 1..9: note = epitope) [compound 1645]
Rank of partial sequence as epitope binding to IgE antibody (serum of patient P36 (WDEIA)): More preferably

Substance: 1647 (YNPD; REGION 1..4: note = epitope) [compound 1647]
Rank of partial sequence as epitope binding to IgE antibody (serum of patient P36 (WDEIA)): Key

Substance: 1648 (FVPISG; REGION 1..6: note = epitope) [compound 1648]
Rank of partial sequence as epitope binding to IgE antibody (serum of patient P36 (WDEIA)): Key

Substance: 1651 (NPDKVP; REGION 1..6: note = epitope) [compound 1651]
Rank of partial sequence as epitope binding to IgE antibody [1]: Key

Substance: 1653 (YNPDKVPFV; REGION 1..9: note = epitope) [compound 1653]
Rank of partial sequence as epitope binding to IgE antibody (serum of patient P51 (child, general immediate type allergy to wheat)): Preferably
